Experimental data as given in patent US8227625B2, “4,5,6,7-tetrahydrobenzo[b]thiophene derivatives and their use as sigma receptor ligands” (Laboratorios del Dr. Esteve, S.A., priority 2006, dated 2012).

Row | Compound | melting point [°C]
1 | O=C(O)C(=O)O.c1ccc2c(c1)CN(CCC1CCCc3sccc31)C2 (stereo not shown) [Example 22, 2-(2-(4,5,6,7-tetrahydrobenzo[b]thien-4-yl)ethyl)isoindoline oxalate] | 203 to 205
2 | C(/CN1CCCCC1)=C1/CCCc2sccc21.O=C(O)C(=O)O [Example 10, (E)-1-(2-(6,7-dihydrobenzo[b]thien-4(5H)-ylidene)ethyl)piperidine oxalate] | 148 to 150
3 | COc1ccc2c(c1)CN(CCC1CCCc3sccc31)CC2.O=C(O)C(=O)O (stereo not shown) [Example 75, 7-methoxy-2-(2-(4,5,6,7-tetrahydrobenzo[b]thiophen-4-yl)ethyl)-1,2,3,4-tetrahydroisoquinoline oxalate] | 200 to 201
4 | CN(CCC1CCCc2sccc21)Cc1ccccc1.O=C(O)C(=O)O (stereo not shown) [Example 24, N-benzyl-N-methyl-2-(4,5,6,7-tetrahydrobenzo[b]thien-4-yl)ethanamine oxalate] | 168 to 171
5 | O=C(O)C(=O)O.c1ccc2[nH]c(C3CCN(CCC4CCCc5sccc54)CC3)nc2c1 (stereo not shown) [Example 59, 2-(1-(2-(4,5,6,7-tetrahydrobenzo[b]thiophen-4-yl)ethyl)piperidin-4-yl)-1H-benzo[d]imidazole oxalate] | 223 to 225
6 | O=C(O)C(=O)O.c1ccc2cc(C3CCN(CCC4CCCc5sccc54)CC3)ccc2c1 (stereo not shown) [Example 50, 4-(naphthalen-2-yl)-1-(2-(4,5,6,7-tetrahydrobenzo[b]thiophen-4-yl)ethyl)piperidine oxalate] | 203 to 205
7 | O=C(O)C(=O)O.c1ccc2c(C3CCN(CCC4CCCc5sccc54)CC3)cccc2c1 (stereo not shown) [Example 32, 4-(naphthalen-1-yl)-1-(2-(4,5,6,7-tetrahydrobenzo[b]thiophen-4-yl)ethyl)piperidine oxalate] | 197 to 198
8 | FC(F)(F)c1cc(C2CCN(CCC3CCCc4sccc43)CC2)cc(C(F)(F)F)c1.O=C(O)C(=O)O (stereo not shown) [Example 48, 4-(3,5-bis(trifluoromethyl)phenyl)-1-(2-(4,5,6,7-tetrahydrobenzo[b]thiophen-4-yl)ethyl)piperidine oxalate] | 205 to 206
9 | Clc1cccc(C2CCN(CCC3CCCc4sccc43)CC2)c1.O=C(O)C(=O)O (stereo not shown) [Example 42, 4-(3-chlorophenyl)-1-(2-(4,5,6,7-tetrahydrobenzo[b]thiophen-4-yl)ethyl)piperidine oxalate] | 185 to 186
10 | Fc1cccc(C2CCN(CCC3CCCc4sccc43)CC2)c1.O=C(O)C(=O)O (stereo not shown) [Example 30, 4-(3-fluorophenyl)-1-(2-(4,5,6,7-tetrahydrobenzo[b]thiophen-4-yl)ethyl)piperidine oxalate] | 203 to 204
11 | C(/CN1CCC(c2ccccc2)CC1)=C1/CCCc2sccc21.O=C(O)C(=O)O [Example 6, (E)-1-(2-(6,7-dihydrobenzo[b]thien-4(5H)-ylidene)ethyl)-4-phenylpiperidine oxalate] | 160 to 163
12 | CN(C/C=C1\CCCc2sccc21)CCc1ccccc1.O=C(O)C(=O)O [Example 8, (E)-N-(2-(6,7-dihydrobenzo[b]thien-4(5H)-ylidene)ethyl)-N-methyl-2-phenylethanamine oxalate] | 129 to 130
13 | C(/CN1CCOCC1)=C1/CCCc2sccc21.O=C(O)C(=O)O [Example 14, (E)-4-(2-(6,7-dihydrobenzo[b]thien-4(5H)-ylidene)ethyl)morpholine oxalate] | 171 to 174
14 | Brc1cccc2c1CCN(CCC1CCCc3sccc31)C2.O=C(O)C(=O)O (stereo not shown) [Example 91, 5-bromo-2-(2-(4,5,6,7-tetrahydrobenzo[b]thiophen-4-yl)ethyl)-1,2,3,4-tetrahydroisoquinoline oxalate] | 167 to 168
15 | COc1cccc(C2CCN(CCC3CCCc4sccc43)CC2)c1.O=C(O)C(=O)O (stereo not shown) [Example 44, 4-(3-methoxyphenyl)-1-(2-(4,5,6,7-tetrahydrobenzo[b]thiophen-4-yl)ethyl)piperidine oxalate] | 157 to 159
16 | O=C(O)C(=O)O.c1ccc2c(C3CCN(CCC4CCCc5sccc54)CC3)csc2c1 (stereo not shown) [Example 57, 4-(benzo[b]thiophen-3-yl)-1-(2-(4,5,6,7-tetrahydrobenzo[b]thiophen-4-yl)ethyl)piperidine oxalate] | 190 to 192
17 | COc1ccccc1C1CCN(CCC2CCCc3sccc32)CC1.O=C(O)C(=O)O (stereo not shown) [Example 36, 4-(2-methoxyphenyl)-1-(2-(4,5,6,7-tetrahydrobenzo[b]thiophen-4-yl)ethyl)piperidine oxalate] | 160 to 162
18 | Clc1cc(Cl)c2c(c1)CN(CCC1CCCc3sccc31)CC2.O=C(O)C(=O)O (stereo not shown) [Example 77, 5,7-dichloro-2-(2-(4,5,6,7-tetrahydrobenzo[b]thiophen-4-yl)ethyl)-1,2,3,4-tetrahydroisoquinoline oxalate] | 182 to 184
19 | COc1ccc(C2CCN(CCC3CCCc4sccc43)CC2)cc1.O=C(O)C(=O)O (stereo not shown) [Example 63, 4-(4-methoxyphenyl)-1-(2-(4,5,6,7-tetrahydrobenzo[b]thiophen-4-yl)ethyl)piperidine oxalate] | 175 to 176

The remaining lines, values ahead:

Row | melting point [°C] | Compound
20 | 140 to 142 | CN1CCC2(CCN(CCC3CCCc4sccc43)CC2)C1=O.O=C(O)C(=O)O (stereo not shown) [Example 65, 2-Methyl-8-[2-(4,5,6,7-tetrahydrobenzo[b]thiophen-4-yl)-ethyl]-2,8-diazaspiro[4.5]decan-1-one oxalate]
21 | 170 to 171 | O=C(O)C(=O)O.O=C1N(Cc2ccccc2)CCC12CCN(CCC1CCCc3sccc31)CC2 (stereo not shown) [Example 83, 2-benzyl-8-[2-(4,5,6,7-tetrahydrobenzo[b]thiophen-4-yl)-ethyl]-2,8-diazaspiro[4.5]decan-1-one oxalate]
22 | 195 to 199 | O=C(O)C(=O)O.O=C1N(c2ccc(F)cc2)CCC12CCN(CCC1CCCc3sccc31)CC2 (stereo not shown) [Example 95, 2-(4-Fluorophenyl)-8-[2-(4,5,6,7-tetrahydrobenzo[b]thiophen-4-yl)-ethyl]-2,8-diazaspiro[4.5]decan-1-one oxalate]
23 | 188 to 190 | Cc1ccccc1C1CCN(CCC2CCCc3sccc32)CC1.O=C(O)C(=O)O (stereo not shown) [Example 28, 1-(2-(4,5,6,7-tetrahydrobenzo[b]thiophen-4-yl)ethyl)-4-o-tolylpiperidine oxalate]
24 | 186 to 189 | O=C(O)C(=O)O.O=C1OC2(CCN(CCC3CCCc4sccc43)CC2)c2ccccc21 (stereo not shown)
25 | 208 to 209 | Fc1ccccc1C1CCN(CCC2CCCc3sccc32)CC1.O=C(O)C(=O)O (stereo not shown) [Example 54, 4-(2-fluorophenyl)-1-(2-(4,5,6,7-tetrahydrobenzo[b]thiophen-4-yl)ethyl)piperidine oxalate]
26 | 218 to 220 | O=C(O)C(=O)O.O=C1N(c2ccc(Cl)cc2)CCC12CCN(CCC1CCCc3sccc31)CC2 (stereo not shown) [Example 69, 2-(4-Chlorophenyl)-8-[2-(4,5,6,7-tetrahydrobenzo[b]thiophen-4-yl)-ethyl]-2,8-diazaspiro[4.5]decan-1-one oxalate]
27 | 147 to 149 | O=C(O)C(=O)O.O=C1NCCC12CCN(CCC1CCCc3sccc31)CC2 (stereo not shown) [Example 71, 8-[2-(4,5,6,7-Tetrahydrobenzo[b]thiophen-4-yl)-ethyl]-2,8-diazaspiro[4.5]decan-1-one oxalate]
28 | 198 to 199 | C1=CC2(CCN(CCC3CCCc4sccc43)CC2)c2ccccc21.O=C(O)C(=O)O (stereo not shown)
